From patent US20090048214A1, “Methods for Treating Renal Tumors Using 2, 4-Pyrimidinediamine Drug and Prodrug Compounds” (RIGEL PHARMACEUTICALS, INC, priority 2006, published 2009)

How the values were obtained:
OVCAR-4 = details: OVCAR-4, Ovarian Cancer; besylate salt
NCI-H522 = details: NCI-H522, Non-Small Cell Lung Cancer; besylate salt
UACC-62 [1] = test: cells; details: Homo sapiens, UACC-62, read-out: LC50
MDA-MB-435 = details: MDA-MB-435, Breast Cancer; besylate salt
RPM1-8226 = details: RPM1-8226, Leukemia; besylate salt
COLO 205 = details: COLO 205, Colon Cancer; besylate salt
SF-268 = details: SF-268, CNS Cancer; besylate salt
UO-31 = test: cells; details: Homo sapiens
MDA-MB-231/ATCC = test: cells; details: Homo sapiens, MDA-MB-231, read-out: LC50
MCF7 = details: MCF7, Breast Cancer; besylate salt
NCI-H23 = details: NCI-H23, Non-Small Cell Lung Cancer; besylate salt
HL-60(TB) = test: cells; details: Homo sapiens
IGROV1 = details: IGROV1, Ovarian Cancer; besylate salt
LOX I MVI [2] = test: cells; details: Homo sapiens, LOX IMVI
TK-10 = details: TK-10, Renal Cancer; besylate salt
OVCAR-5 = test: cells; details: Homo sapiens
RXF 393 = details: RXF 393, Renal Cancer; besylate salt
ACHN = details: Renal Cancer, besylate salt
SK-MEL-28 [3] = details: SK-MEL-28, Melanoma; besylate salt
MALME-3M = test: cells; details: Homo sapiens
SK-OV-3 = details: SK-OV-3, Ovarian Cancer; besylate salt
SN12C = test: cells; details: Homo sapiens
NCI-H322M = details: Non-Small Cell Lung Cancer, besylate salt
A498 = test: cells; details: Homo sapiens
HS 578T = details: Breast Cancer, besylate salt
HOP-62 = test: cells; details: Homo sapiens
SK-MEL-5 = test: cells; details: Homo sapiens
HCT-15 = details: HCT-15, Colon Cancer; besylate salt
UACC-62 [4] = details: UACC-62, Melanoma; besylate salt
A549/ATCC = details: Non-Small Cell Lung Cancer, besylate salt
MOLT-4 = details: MOLT-4, Leukemia; besylate salt
786-0 = test: cells; details: Homo sapiens
OVCAR-3 = test: cells; details: Homo sapiens
SNB-19 = test: cells; details: Homo sapiens
LOX I MVI [5] = details: Melanoma, besylate salt
SK-MEL-28 [6] = test: cells; details: Homo sapiens

In the case of `COc1cc(Nc2ncc(F)c(Nc3ccc4c(n3)NC(=O)C(C)(C)O4)n2)cc(OC)c1OC` [Compound 1], the TGI (OVCAR-4) is reported as greater than 1.00E−4, the TGI (NCI-H522) is reported as greater than 1.00E−4 and the CC50 (UACC-62 [1]) is reported as greater than 100 µM. The TGI (MDA-MB-435) was greater than 1.00E−4, the TGI (RPM1-8226) was greater than 1.00E−4 and the TGI (COLO 205) was greater than 1.00E−4. For the same molecule, the TGI (SF-268) was greater than 1.00E−4, the IC50 (UO-31; UO-31, read-out: G150) was 0.596 µM and the CC50 (UO-31; UO-31, read-out: LC50) was greater than 100 µM. The CC50 (MDA-MB-231/ATCC) was greater than 100 µM, the TGI (MCF7) was greater than 1.00E−4 and the TGI (NCI-H23) was greater than 1.00E−4. The IC50 (HL-60(TB); HL-60, read-out: G150) was greater than 100 µM, the CC50 (HL-60(TB); HL-60, read-out: LC50) was greater than 100 µM and the TGI (IGROV1) was greater than 1.00E−4. For the same molecule, the IC50 (LOX I MVI [2]; read-out: G150) was 1.13 µM, the CC50 (LOX I MVI [2]; read-out: LC50) was greater than 100 µM and the TGI (TK-10) was greater than 1.00E−4. For the same molecule, the IC50 (OVCAR-5; OVCAR-5, read-out: G150) was greater than 100 µM, the CC50 (OVCAR-5; OVCAR-5, read-out: LC50) was greater than 100 µM and the TGI (RXF 393) was 7.74E−7. The TGI (ACHN) was greater than 1.00E−4, the TGI (SK-MEL-28 [3]) was greater than 1.00E−4 and the IC50 (MALME-3M; read-out: G150) was greater than 100 µM. It also gave a CC50 (MALME-3M; read-out: LC50) greater than 100 µM, a TGI (SK-OV-3) greater than 1.00E−4 and an IC50 (SN12C; read-out: G150) of 0.698 µM. The CC50 (SN12C; read-out: LC50) was greater than 100 µM, the TGI (NCI-H322M) was greater than 1.00E−4 and the IC50 (A498; A498, read-out: G150) was 0.36 µM. It also gave a CC50 (A498; A498, read-out: LC50) greater than 100 µM, a TGI (HS 578T) greater than 1.00E−4 and an IC50 (HOP-62; HOP-62, read-out: G150) of 0.537 µM. For the same molecule, the CC50 (HOP-62; HOP-62, read-out: LC50) was greater than 100 µM, the IC50 (SK-MEL-5; SK-MEL-5, read-out: G150) was greater than 100 µM and the CC50 (SK-MEL-5; SK-MEL-5, read-out: LC50) was greater than 100 µM. For the same molecule, the TGI (HCT-15) was greater than 1.00E−4, the TGI (UACC-62 [4]) was greater than 1.00E−4 and the TGI (A549/ATCC) was greater than 1.00E−4. The TGI (MOLT-4) was greater than 1.00E−4, the IC50 (786-0; 786-0, read-out: G150) was 0.873 µM and the CC50 (786-0; 786-0, read-out: LC50) was greater than 100 µM. The IC50 (OVCAR-3; OVCAR-3, read-out: G150) was greater than 100 µM, the CC50 (OVCAR-3; OVCAR-3, read-out: LC50) was greater than 100 µM and the IC50 (SNB-19; SNB-19, read-out: G150) was greater than 100 µM. The CC50 (SNB-19; SNB-19, read-out: LC50) was greater than 100 µM, the TGI (LOX I MVI [5]) was 1.13E−6 and the IC50 (SK-MEL-28 [6]; SK-MEL-28, read-out: G150) was greater than 100 µM. The CC50 (SK-MEL-28 [6]; SK-MEL-28, read-out: LC50) was greater than 100 µM.
